The structures appear in SMILES notation.

For this assay, the system named is Human platelet-rich plasma (blood platelets). Kind of assay: Collagen-induced blood platelet aggregation (aggregometer method of Born; maximum aggregation velocity). The format is cell-based. To be noted: human citrated platelet-rich plasma, 10 min preincubation at 37° C., collagen fibrils. How it is done: The maximum aggregation velocity was taken as the test parameter and the effective concentration (EC50) was ascertained from dosage-activity curves.
Human platelet-rich plasma was obtained by centrifugation from citrated venous blood. The experiments were carried out with suspensions of the test substances in 0.9% sodium chloride. 0.18 ml of citrate plasma was treated with a 10 μl suspension of the test compound and incubated at 37° C. for 10 minutes, whereupon the aggregation was initiated by adding 10 μl of a suspension of collagen fibrils.
By EC50 is commonly meant the concentration that produces a half-maximal response. Lower therefore signals an effect from little substance. Consider `CC(C)(C)c1nc(-c2ccc(F)cc2)[nH]c1C(C)(C)C` [4,5-Di-t-butyl-2-(4-fluorophenyl)-imidazole], for which the 50% effective concentration (EC50) is 500 nM. The result for `CC(C)(C)c1nc(-c2ccccc2)[nH]c1C(C)(C)C` [4,5-Di-t-butyl-2-phenylimidazole, 4,5-di-t-butyl-2-phenylimidazole] reads 600 nM; that for `COc1cc(-c2nc(C(C)(C)C)c(C(C)(C)C)[nH]2)cc(OC)c1OC` [4,5-di-t-butyl-2-(3,4,5-trimethoxyphenyl)-imidazole], 720 nM.

Molecule `CC(C)(C)c1nc(-c2ccc3c(c2)OCO3)[nH]c1C(C)(C)C` [4,5-di-t-butyl-2-(3,4-methylenedioxyphenyl)-imidazole] registered an EC50 of 550 nM. The EC50 values of the last two molecules are within 1.5-fold of each other.

`COc1cc(-c2nc(C(C)(C)C)c(C(C)(C)C)[nH]2)cc2c1OCO2` [4,5-di-t-butyl-2-(5-methoxy-3,4-methylenedioxyphenyl)-imidazole]: the EC50 worked out at 14400 nM.

(Values after patent US4582844A, “Antithrombotic 4,5 di-t-butyl-imidazole derivatives” (Hoffmann-La Roche Inc., priority 1980, dated 1986).)
